Assay results: US6420367B1, “Pyrimidine derivatives exhibiting antitumor activity” (Shionogo & Co., Ltd., priority 1998, dated 2002)
In brackets after ≈: the same amount, converted by molar mass.

Key:
human colon cancer HT29 = test: In vitro cell growth inhibition test, MTT assay; format: cell-based; conditions: MTT assay 4 days after compound addition
Source text: (§1) Test Example 2 In Vitro Cell Growth Inhibition Test Cells and MTT Assay
(§2) Human squamous lung cancer […], human squamous lung cancer Ma44, human lung adenocarcinoma A549, human colon cancer HT29 and human pancreas cancer PANC-1 were used.

[1] = test system: human lung adenocarcinoma A549; test: In vitro cell growth inhibition test, MTT assay; format: cell-based; conditions: MTT assay 4 days after compound addition
Source text: as §1, §2

[2] = test system: human squamous lung cancer RERF-RC-AI; test: In vitro cell growth inhibition test, MTT assay; format: cell-based; conditions: MTT assay 4 days after compound addition
Source text: as §1, §2

[3] = test system: DT-R cells (pRRE3-luc-transfected v-ki-ras-transformed NIH3T3 cells); signal derived from Ras oncogene products; test: Inhibitory effect against cellular signaling derived from Ras oncogene products: luciferase reporter, dissociation of DT-R from DT-C activity (MAC); format: cell-based, mouse; conditions: minimal tested concentration at which luciferase activities of DT-C cells and DT-R cells dissociated
Source text: Test Example 1 Inhibitory Effect Against Cellular Signaling Derived From Ras Oncogene Products
1) Establishment of Cell Lines Used in Assay
Based on the reporter plasmid (pGV-P (Toyo Ink, Japan)), in which luciferase gene was ligated to SV40-derived minimal promoter, we constructed a plasmid designated pRRE3-luc by inserting 3 copies of chemically synthesized oligonucleotides (Sequence: CAGGATATGACTCT, derived from mouse NVL-3 (M. A. Reddy et al.(1992)Mol. Endocrinol., 6, 1051)) into upstream of the promoter. v-ki-ras-transformed NIH3T3 cells (DT cells, provided by Dr. Makoto Noda (Kyoto Univ., School of medicine)) were transfected with this plasmid by liposome-mediated transfection and transfected cell lines stably incorporated and maintained each plasmid were obtained. We named pGV-P and pRRE3-transfected cell line as DT-C and DT-R, respectively and used in the assay described below.
2) Preparation of Samples
i) All the cell lines were cultured in Dulbecco's Modified Essential Medium (DMEM: 10% Fetal Calf Serum(FCS: Hyclone, USA)) including […] kanamycin (Meiji Seika, Japan) in humidified incubator under condition of 5% CO2 at 37° C.
ii) DT-C and DT-R cells were seeded at 2500 cells/well into flat-bottom 96 well multiplate (Sumitomo bakelite) and incubated for 24 hours.
iii) Test compounds were prepared as 1 mg/ml DMSO solution.
iv) The solution of test compounds were added to the culture. Tested compounds are used at the concentration from […] to 0.51 ng/ml with by 3-fold dilution.
v) After 24 hours, the culture supernatant was completely aspirated and […] of cell-lysing solution (PGC-50 (Toyo Ink, Japan)) was added before cells were dried up. In order to the cells were lysed completely, multiwell plates were left at room temperature for 10 to 30 min. The plates were wrapped up and stored at −20° C. till the day of measurement.
3) Measurement of Samples
i) Melt the samples by putting 96 well multiplate at 37° C. and add 90 μl/well 25 mM Tris (pH 7.5).
ii) Transfer 50 μl of the sample (110 μl) to the 96 well microplate for measurement (Microlite 1 (Dynatech)).
iii) Measure the samples by the luminometer, LUMINOUS CT9000D (Dia-Yatron, Japan). We used Pickagene luminescence kit PGL2000 or LT2.0 (Toyo Ink, Japan) as substrates for luminescence measurement (50 μl/well).
4) Judgment of the Results
i) The luciferase activity of DT-C cells and DT-R cells were plotted in the graph where the relative activity and the compound concentration were expressed as Y-axis and X-axis, respectively. We judged by the degree of dissociation between the activities of DT-C cells and DT-R cells as an index.
ii) Concretely, efficacy of the compound was expressed by two values described below.
a) Among the points of concentration tested, the minimal concentration (Minimal Active Concentration: MAC), at which the activities of DT-C cells and DT-R cells dissociated, was shown as an index of efficacy of the compound.

[4] = test system: human squamous lung cancer Ma44; test: In vitro cell growth inhibition test, MTT assay; format: cell-based; conditions: MTT assay 4 days after compound addition
Source text: as §1, §2

[5] = test system: human pancreas cancer PANC-1; test: In vitro cell growth inhibition test, MTT assay; format: cell-based; conditions: MTT assay 4 days after compound addition
Source text: as §1, §2

Row | Compound | IC50, HT29 (human colon cancer HT29) [µg/mL] | IC50, A549 [1] [µg/mL] | IC50, RERF-LC-AI [2] [µg/mL] | MAC (Minimal Active Concentration) [3] [µg/mL] | IC50, Ma44 [4] [µg/mL] | IC50, PANC-1 [5] [µg/mL]
1 | CCNC(N)=Nc1nc(C)ncc1CSc1nnc(-c2ccccc2N)o1 [Compound A-8] | 0.008 (≈ 0.0208 µM) | 0.012 (≈ 0.0312 µM) | 0.01 (≈ 0.026 µM) | – | – | –
2 | CCNC(=Nc1nc(C)ncc1COc1nnc(-c2ccccc2N)o1)NC [Compound B-2] | – | – | – | 0.370 | – | –
3 | CCNC(=Nc1nc(C)ncc1CSc1nnc(-c2ccccc2)o1)NC [Compound A-21] | – | – | 0.02 (≈ 0.0522 µM) | – | – | –
4 | CCNC(=Nc1nc(C)ncc1CSc1nnc(-c2ccccc2O)o1)NC [Compound A-27] | – | 0.69 (≈ 1.73 µM) | 0.079 (≈ 0.198 µM) | – | 1 (≈ 2.5 µM) | –
5 | CCNC(=Nc1ncncc1CSc1nnc(-c2ccc(C(C)C)cc2)o1)NCC [Compound A-115] | 0.065 (≈ 0.153 µM) | 4.6 (≈ 10.8 µM) | 0.43 (≈ 1.01 µM) | – | 5.8 (≈ 13.6 µM) | –
6 | CCNC(=Nc1nc(C)ncc1CSc1nnc(-c2cc(F)ccc2N)o1)NCC [Compound A-50] | 0.09 (≈ 0.209 µM) | – | 0.047 (≈ 0.109 µM) | – | 0.26 (≈ 0.604 µM) | –
7 | CCNC(=Nc1nc(C)ncc1CSc1nnc(-c2ccc(Cl)cc2)o1)NCC [Compound A-62] | – | – | 0.0078 (≈ 0.0181 µM) | 0.0412 | 0.024 (≈ 0.0556 µM) | 0.017 (≈ 0.0394 µM)
8 | CCNC(=Nc1ncncc1CSc1nnc(-c2ccc([N+](=O)[O-])cc2Cl)o1)NCC [Compound A-126] | 0.014 (≈ 0.0302 µM) | 0.028 (≈ 0.0605 µM) | 0.012 (≈ 0.0259 µM) | 0.0137 | 0.17 (≈ 0.367 µM) | –
9 | CCNC(=Nc1nc(C)ncc1CSc1nnc(-c2ccccc2NCC)o1)NC [Compound A-40] | 0.049 (≈ 0.115 µM) | – | – | 0.370 | 0.071 (≈ 0.166 µM) | –
10 | CCCCNC(N)=Nc1nc(C)ncc1CSc1nnc(-c2ccccc2N)o1 [Compound A-9] | 0.1 (≈ 0.242 µM) | 0.09 (≈ 0.218 µM) | 0.025 (≈ 0.0606 µM) | – | – | –
11 | CCNC(N)=Nc1nc(C)ncc1CSc1nnc(-c2ccccc2NC(=O)CC)o1 [Compound A-22] | – | – | 0.02 (≈ 0.0454 µM) | – | – | –
12 | CCNC(=Nc1ncncc1CSc1nnc(-c2ccc([N+](=O)[O-])cc2)o1)N(C)C [Compound A-190] | – | – | – | 0.0412 | – | –
13 | CNC(=Nc1nc(C)ncc1CSc1nnc(-c2ccc([N+](=O)[O-])cc2)o1)NC.Cl [Compound A-159] | – | – | – | 0.0412 | – | –
14 | CCCNC(=Nc1nc(C)ncc1CSc1nnc(-c2ccc(N)cc2OC)o1)NCCC [Compound A-156] | 0.023 (≈ 0.0489 µM) | – | 0.016 (≈ 0.034 µM) | – | 0.072 (≈ 0.153 µM) | 0.025 (≈ 0.0531 µM)
15 | CCNC(=Nc1nc(C)ncc1CSc1nnc(-c2cccc(N)c2)o1)NCC [Compound A-41] | 0.072 (≈ 0.175 µM) | – | – | – | 0.065 (≈ 0.158 µM) | –
16 | CCCc1ccc(-c2nnc(SCc3cncnc3N=C(NCC)NCC)o2)cc1 [Compound A-116] | 0.072 (≈ 0.169 µM) | 3.8 (≈ 8.93 µM) | 0.62 (≈ 1.46 µM) | – | 4.2 (≈ 9.87 µM) | –

Row | Compound | IC50, HT29 (human colon cancer HT29) [µg/mL] | IC50, A549 [1] [µg/mL] | IC50, RERF-LC-AI [2] [µg/mL] | MAC (Minimal Active Concentration) [3] [µg/mL] | IC50, Ma44 [4] [µg/mL] | IC50, PANC-1 [5] [µg/mL]
17 | CCNC(=Nc1ncncc1CSc1nnc(-c2ccc(CC)cc2)o1)NCC [Compound A-114] | 0.045 (≈ 0.109 µM) | 0.32 (≈ 0.778 µM) | 0.029 (≈ 0.0705 µM) | 1.11 | 0.83 (≈ 2.02 µM) | –
18 | CCNC(=Nc1ncncc1CSc1nnc(-c2ccc(-n3cccc3)nc2)o1)NCC [Compound D-35] | 0.025 (≈ 0.0556 µM) | 4.6 (≈ 10.2 µM) | 2.5 (≈ 5.56 µM) | – | 1.5 (≈ 3.34 µM) | –
19 | C=C(Br)CNC(=Nc1ncncc1CSc1nnc(-c2ccc(N)cc2)o1)NCC [Compound A-111] | 0.035 (≈ 0.0715 µM) | 0.097 (≈ 0.198 µM) | 0.017 (≈ 0.0347 µM) | 0.123 | 0.4 (≈ 0.817 µM) | –
20 | CCC(=O)Nc1ccccc1-c1nnc(SCc2cnc(C)nc2N=C(N)NC)o1 [Compound A-20] | – | – | 0.02 (≈ 0.0469 µM) | – | – | –
21 | CCNC(=Nc1ncncc1CSc1nnc(-c2ccc(N)cc2)o1)NCCO [Compound A-113] | 0.076 (≈ 0.183 µM) | 0.62 (≈ 1.5 µM) | 0.027 (≈ 0.0651 µM) | – | 1.2 (≈ 2.9 µM) | –
22 | CCNC(=Nc1nc(C(F)(F)F)ncc1CSc1nnc(-c2ccccc2N)o1)NCC [Compound A-46] | 0.32 (≈ 0.686 µM) | – | 0.14 (≈ 0.3 µM) | – | 1.8 (≈ 3.86 µM) | –
23 | CNC(N)=Nc1nc(C)ncc1CSc1nnc(-c2ccccc2N)o1.Cl.Cl [Compound A-5] | 0.15 | 0.16 | 0.2 | – | – | –
24 | CCNC(=Nc1ncncc1CSc1nnc(-c2ccc(C(C)=O)cc2)o1)NCC [Compound A-117] | 0.017 (≈ 0.04 µM) | 1.1 (≈ 2.59 µM) | 0.16 (≈ 0.376 µM) | – | 8.6 (≈ 20.2 µM) | –
25 | CCNC(N)=Nc1nc(C)ncc1CSc1nnc(-c2ccccc2NC(C)=O)o1 [Compound A-18] | – | – | 0.0022 (≈ 0.00516 µM) | – | – | –
26 | CCNC(=Nc1nc(C)ncc1CSc1nnc(-c2ccccc2NC)o1)NC [Compound A-38] | 0.023 (≈ 0.0558 µM) | – | 0.014 (≈ 0.0339 µM) | 0.0412 | 0.034 (≈ 0.0824 µM) | 0.028 (≈ 0.0679 µM)
27 | CCNC(=Nc1nc(C)ncc1CSc1nnc(-c2ccccc2NC(C)=O)o1)NCC [Compound A-25] | – | 0.032 (≈ 0.0704 µM) | 0.0078 (≈ 0.0172 µM) | 0.370 | 0.031 (≈ 0.0682 µM) | –
28 | CCNC(=Nc1ncncc1CSc1nnc(-c2cnc(C)cn2)o1)NCC [Compound D-32] | 0.013 (≈ 0.0325 µM) | 3.5 (≈ 8.76 µM) | 0.013 (≈ 0.0325 µM) | – | 3.1 (≈ 7.76 µM) | –
29 | CNC(N)=Nc1nc(C)ncc1CSc1nnc(-c2ccccc2NC(C)=O)o1 [Compound A-19] | – | – | 0.02 (≈ 0.0485 µM) | – | – | –
30 | Cc1ncc(CSc2nnc(-c3ccccc3N)o2)c(N=C(N)NCc2ccccc2)n1 [Compound A-12] | 0.51 (≈ 1.14 µM) | – | 0.87 (≈ 1.95 µM) | – | – | –
31 | CCNC(=Nc1nc(C)ncc1CSc1nnc(-c2ccccc2NC(=O)CC)o1)NC [Compound A-23] | – | 0.041 (≈ 0.0902 µM) | 0.0078 (≈ 0.0172 µM) | 0.123 | 0.025 (≈ 0.055 µM) | –
